The source of these data is patent US8741934B2, “Inhibitors of ion channels” (Pfizer Limited, priority 2007, dated 2014).

Each structure is given as a SMILES string.

For the experiment, the target named is T1, hSCN3A sodium channels (Homo sapiens, UniProt Q9NY46).
T1 construct: expressed in transfected cells
Description: hSCN3A electrophysiology, Ionworks Quattro automated platform (Table C). The format is cell-based. The conditions noted are these: for inhibition at 3 µM: 3 μM compound, read-out: SCN3A % INHIB HTS IWQ 3 μM; for inhibition at 10 µM: 10 μM compound, read-out: SCN3A % INHIB HTS IWQ 10 μM; for SCN3A INHIB INACT DRC EP IWQ EMAX: Emax of dose-response curve, inactivated state; for IC50: read-out: SCN3A IWQ IC-50. The method, then:
Human Embryonic Kidney (HEK) cells were transfected with an hSCN3A construct using lipofectamine reagent (Invitrogen), using standard techniques. […] Clones were screened for expression using the whole-cell voltage-clamp technique.
HEK cells stably transfected with hSCN3A were maintained in DMEM medium supplemented with 10% heat-inactivated fetal bovine serum and 400 μg/ml G418 sulfate in an incubator at 37° C. with a humidified atmosphere of 10% CO2. […] For electrophysiological studies, cells were removed from the culture flask by brief trypsinization and replated at low density onto glass cover slips. Cells were typically used for electrophysiological experiments within 24 to 72 h after plating.
Electrophysiological assays were also conducted using the Ionworks Quattro automated electrophysiological platform (Molecular Devices Corp) (Table C). Intracellular and extracellular solutions were as described above with the following changes, 100 μg/ml amphotericin was added to the intracellular solution to perforate the membrane and allow electrical access to the cells. hSCN3A cells were grown and harvested as for PatchXpress and cells were resuspended in extracellular solution at a concentration of 3-4×10^6 cells/ml. The onboard liquid handling facility of the Ionworks Quattro was used for dispensing cells and application of test compounds. A voltage protocol was then applied that comprised of a voltage step to fully inactivate the sodium channels, followed by a brief hyperpolarized recovery period to allow partial recovery from inactivation for unblocked sodium channels, followed by a test depolarized voltage step to assess magnitude of inhibition by test compound. Compound effect was determined based on current amplitude difference between the pre-compound addition and post-compound addition scans.
A general note: In patch-clamp work, channel activity is measured electrically.

T1 sequence (Q9NY46 whole entry): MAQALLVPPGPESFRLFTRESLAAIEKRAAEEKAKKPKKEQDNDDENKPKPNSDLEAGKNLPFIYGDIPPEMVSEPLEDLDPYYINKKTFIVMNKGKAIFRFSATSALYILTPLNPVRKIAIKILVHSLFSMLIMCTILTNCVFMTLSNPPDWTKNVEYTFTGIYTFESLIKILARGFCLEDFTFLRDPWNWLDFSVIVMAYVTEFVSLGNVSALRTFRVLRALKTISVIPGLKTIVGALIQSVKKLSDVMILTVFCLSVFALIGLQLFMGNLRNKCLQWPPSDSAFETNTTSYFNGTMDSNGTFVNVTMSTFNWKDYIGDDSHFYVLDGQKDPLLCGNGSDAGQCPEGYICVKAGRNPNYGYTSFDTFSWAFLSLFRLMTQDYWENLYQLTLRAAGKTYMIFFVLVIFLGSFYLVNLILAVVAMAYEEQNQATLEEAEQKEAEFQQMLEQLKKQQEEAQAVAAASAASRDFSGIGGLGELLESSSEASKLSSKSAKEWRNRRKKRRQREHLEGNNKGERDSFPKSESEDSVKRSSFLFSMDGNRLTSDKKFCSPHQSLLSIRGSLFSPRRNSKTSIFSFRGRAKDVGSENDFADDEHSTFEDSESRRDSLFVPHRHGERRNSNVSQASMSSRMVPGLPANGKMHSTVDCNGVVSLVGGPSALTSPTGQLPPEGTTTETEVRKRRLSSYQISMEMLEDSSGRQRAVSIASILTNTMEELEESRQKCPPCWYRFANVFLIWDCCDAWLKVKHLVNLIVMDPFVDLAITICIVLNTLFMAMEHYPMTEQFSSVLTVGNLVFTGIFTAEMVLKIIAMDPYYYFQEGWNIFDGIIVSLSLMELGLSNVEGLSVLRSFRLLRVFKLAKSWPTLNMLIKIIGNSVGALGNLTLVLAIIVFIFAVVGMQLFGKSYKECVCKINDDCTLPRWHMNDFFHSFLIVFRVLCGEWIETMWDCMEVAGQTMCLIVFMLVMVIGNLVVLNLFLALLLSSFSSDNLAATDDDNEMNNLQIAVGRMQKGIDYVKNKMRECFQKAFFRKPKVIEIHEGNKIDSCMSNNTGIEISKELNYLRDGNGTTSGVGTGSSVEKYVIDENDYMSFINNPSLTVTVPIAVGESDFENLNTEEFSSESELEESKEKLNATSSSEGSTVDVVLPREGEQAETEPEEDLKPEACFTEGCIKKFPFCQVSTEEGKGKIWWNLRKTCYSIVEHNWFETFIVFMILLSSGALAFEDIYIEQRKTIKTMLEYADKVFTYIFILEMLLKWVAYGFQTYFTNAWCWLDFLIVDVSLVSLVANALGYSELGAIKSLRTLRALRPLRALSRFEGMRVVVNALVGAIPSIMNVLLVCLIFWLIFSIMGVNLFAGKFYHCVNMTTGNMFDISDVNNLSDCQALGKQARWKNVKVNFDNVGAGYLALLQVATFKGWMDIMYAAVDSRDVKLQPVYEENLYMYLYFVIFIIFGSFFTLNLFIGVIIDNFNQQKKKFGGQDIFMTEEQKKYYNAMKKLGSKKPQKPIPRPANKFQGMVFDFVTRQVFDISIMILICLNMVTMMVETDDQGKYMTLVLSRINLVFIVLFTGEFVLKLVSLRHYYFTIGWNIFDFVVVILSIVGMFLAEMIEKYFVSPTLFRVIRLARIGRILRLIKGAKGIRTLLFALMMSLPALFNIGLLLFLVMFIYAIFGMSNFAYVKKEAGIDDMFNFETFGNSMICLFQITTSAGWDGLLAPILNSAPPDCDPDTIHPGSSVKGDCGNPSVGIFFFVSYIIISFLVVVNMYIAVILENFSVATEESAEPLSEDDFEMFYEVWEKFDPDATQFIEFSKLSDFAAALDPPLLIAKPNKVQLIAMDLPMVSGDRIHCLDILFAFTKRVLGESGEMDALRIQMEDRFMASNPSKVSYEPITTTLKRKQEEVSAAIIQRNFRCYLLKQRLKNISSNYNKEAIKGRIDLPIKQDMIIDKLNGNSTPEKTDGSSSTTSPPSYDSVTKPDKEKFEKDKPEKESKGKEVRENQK

On to `O=C(N[C@@H]1CCC[C@@H]1c1cc(F)cc(F)c1)c1ccc(S(=O)(=O)Nc2nccs2)cc1` [Example 128, N-[(1R,2R)-2-(3,5-difluorophenyl)cyclopentyl]-4-[(1,3-thiazol-2-ylamino)sulfonyl]benzamide], for which the inhibition at 3 µM came out at 11.7% and the inhibition at 10 µM is -1.66%.
In the case of `O=C(NCc1ccccc1OC(F)F)c1ccc(S(=O)(=O)Nc2nccs2)cc1` [Example 66, N-[2-(difluoromethoxy)benzyl]-4-[(1,3-thiazol-2-ylamino)sulfonyl]benzamide], the inhibition at 3 µM amounted to 16.4% and the inhibition at 10 µM is 34.4%.
Consider `O=C(c1ccc(S(=O)(=O)Nc2nccs2)cc1)N1CCCC(Cc2cncnc2)C1` (stereo not drawn) [Example 272, 4-{[3-(Pyrimidin-5 ylmethyl)piperidin-1-yl]carbonyl}-N-1,3-thiazol-2-yl-benzenesulfonamide], for which the inhibition at 3 µM amounted to 1.88% and the inhibition at 10 µM came to 8.31%.
On to `O=C(NCCOc1ccccc1F)c1ccc(S(=O)(=O)Nc2nccs2)cc1` [Example 167, N-[2-(2-fluorophenoxy)ethyl]-4-[(1,3-thiazol-2-ylamino)sulfonyl]benzamide], for which the inhibition at 3 µM turned out to be 30.8% and the inhibition at 10 µM came out at 43%.
In the same order, the values of `O=C(c1ccc(S(=O)(=O)Nc2nccs2)cc1)N1CCCC1Cc1ccccc1F` (stereo not drawn) [Example 233, 4-{[2-(2-Fluorobenzyl)pyrrolidin-1-yl]carbonyl}-N-1,3-thiazol-2-yl-benzenesulfonamide] are 18.5% and 15.9%.
In the same order, the values of `O=C(c1ccc(S(=O)(=O)Nc2nccs2)cc1)N1CCCCC1Cc1ccccn1` (stereo not drawn) [Example 244, 4-{[2-(Pyridin-2-ylmethyl)piperidin-1-yl]carbonyl}-N-1,3-thiazol-2-yl-benzenesulfonamide] are 14.2% and 21.9%.
Consider `O=C(c1ccc(S(=O)(=O)Nc2nccs2)cc1)N1CCCC(OCc2ccccc2)C1` (stereo not drawn) [Example 211, 4-{[3-(benzyloxy)piperidin-1-yl]carbonyl}-N-1,3-thiazol-2-yl-benzenesulfonamide], for which the inhibition at 3 µM is 2.5% and the inhibition at 10 µM came out at 10.1%.
The matching figures for `O=C(c1ccc(S(=O)(=O)Nc2nccs2)cc1)N1CCCCC1CCn1cccn1` (stereo not drawn) [Example 190, 4-({2-[2-(1H-pyrazol-1-yl)ethyl]piperidin-1-yl}carbonyl)-N-1,3-thiazol-2-yl-benzenesulfonamide]: 2.77% and -8.21%.
Regarding `Cc1cc(C)nc(CC2CCCCCN2C(=O)c2ccc(S(=O)(=O)Nc3nccs3)cc2)c1` (stereo not drawn) [Example 246, 4-({2-[(4,6-Dimethylpyridin-2-yl)methyl]azepan-1-yl}carbonyl)-N-1,3-thiazol-2-yl-benzenesulfonamide], the inhibition at 3 µM is -0.31% and the inhibition at 10 µM is -1.47%.
The matching figures for `O=C(NC1(c2cccc(Cl)c2)CC1)c1ccc(S(=O)(=O)Nc2nccs2)cc1` [Example 135, N-[1-(3-chlorophenyl)cyclopropyl]-4-[(1,3-thiazol-2-ylamino)sulfonyl]benzamide]: 27.4% and 30.1%.
In the same order, the values of `O=C(c1ccc(S(=O)(=O)Nc2nccs2)cc1)N1CCCCC1c1cccc(F)c1` (stereo not drawn) [Example 221, 4-{[2-(3-Fluorophenyl)piperidin-1-yl]carbonyl}-N-1,3-thiazol-2-yl-benzenesulfonamide] are 19.9% and 21.8%.
For `O=C(c1ccc(S(=O)(=O)Nc2nccs2)cc1)N1CCCC1c1ccccc1Cl` (stereo not drawn) [Example 215, 4-{[2-(2-Chlorophenyl)pyrrolidin-1-yl]carbonyl}-N-1,3-thiazol-2-yl-benzenesulfonamide], the inhibition at 3 µM amounted to 30.5%, the inhibition at 10 µM turned out to be 51.9%, the “SCN3A INHIB INACT DRC EP IWQ EMAX” value came to 64.7 and the IC50 amounted to 8.41 µM.
On to `Cc1cccc(C2(C)CN(C(=O)c3ccc(S(=O)(=O)Nc4nccs4)cc3)CCO2)c1` (stereo not drawn) [Example 189, 4-{[2-Methyl-2-(3-methylphenyl)morpholin-4-yl]carbonyl}-N-1,3-thiazol-2-yl-benzenesulfonamide], for which the inhibition at 3 µM was determined as 25.3% and the inhibition at 10 µM was determined as 21%.
In the same order, the values of `O=C1[C@@H]2CC[C@@H]3[C@H]1C(c1ccccc1)N(C(=O)c1ccc(S(=O)(=O)Nc4nccs4)cc1)[C@H]3C2` (stereo partly drawn) [Example 192, 4-{[(3S,3aR,6R,7aS)-8-oxo-2-phenyloctahydro-1H-3,6-methanoindol-1-yl]carbonyl}-N-1,3-thiazol-2-yl-benzenesulfonamide] are 6.18% and 26%.
As for `O=C(c1ccc(S(=O)(=O)Nc2nccs2)cc1)N1CCC(CCc2ccccc2)C1` (stereo not drawn) [Example 227, 4-{[3-(2-Phenylethyl)pyrrolidin-1-yl]carbonyl}-N-1,3-thiazol-2-yl-benzenesulfonamide], the inhibition at 3 µM was determined as 29.3%, the inhibition at 10 µM is 45.8%, the “SCN3A INHIB INACT DRC EP IWQ EMAX” value turned out to be 53 and the IC50 turned out to be 20.3 µM.
Regarding `COc1cccc(C2CCCCN2C(=O)c2ccc(S(=O)(=O)Nc3nccs3)cc2)c1` (stereo not drawn) [Example 201, 4-{[2-(3-Methoxyphenyl)piperidin-1-yl]carbonyl}-N-1,3-thiazol-2-yl-benzenesulfonamide], the inhibition at 3 µM amounted to 13.7% and the inhibition at 10 µM is -0.98%.
Turning to `O=C(N[C@H]1CCC[C@@H]1c1ccccc1)c1ccc(S(=O)(=O)Nc2nccs2)cc1` [Example 131, N-[(1S,2R)-2-phenylcyclopentyl]-4-[(1,3-thiazol-2-ylamino)sulfonyl]benzamide], the inhibition at 3 µM came to 27.2% and the inhibition at 10 µM worked out at 13.1%.
In the same order, the values of `O=C(N[C@@H]1COC[C@@H]1c1ccc(F)cc1)c1ccc(S(=O)(=O)Nc2nccs2)cc1` [Example 179, N-[(3S,4R)-4-(4-fluorophenyl)tetrahydrofuran-3-yl]-4-[(1,3-thiazol-2-ylamino)sulfonyl]benzamide] are 9.95% and 15.9%.
In the same order, the values of `CCC(NC(=O)c1ccc(S(=O)(=O)Nc2nccs2)cc1)c1ccc(F)cc1` (stereo not drawn) [Example 142, N-[1-(4-fluorophenyl)propyl]-4-[(1,3-thiazol-2-ylamino)sulfonyl]benzamide] are 30.4% and 31.5%.
The matching figures for `COc1cccc(CCNC(=O)c2ccc(S(=O)(=O)Nc3nccs3)cc2)c1` [Example 166, N-[2-(3-methoxyphenyl)ethyl]-4-[(1,3-thiazol-2-ylamino)sulfonyl]benzamide]: 30.6% and 36.3%.
Consider `O=C(c1ccc(S(=O)(=O)Nc2nccs2)cc1)N1CCCC1c1ccccc1F` (stereo not drawn) [Example 281, 4-{[2-(2-Fluorophenyl)pyrrolidin-1-yl]carbonyl}-N-1,3-thiazol-2-yl-benzenesulfonamide], for which the inhibition at 3 µM was 10.2% and the inhibition at 10 µM stood at 28.9%.
The matching figures for `COc1ccc(CC2(NC(=O)c3ccc(S(=O)(=O)Nc4nccs4)cc3)CC2)cc1` [Example 162, N-[1-(4-methoxybenzyl)cyclopropyl]-4-[(1,3-thiazol-2-ylamino)sulfonyl]benzamide]: 28% and 13.7%.
Consider `O=C(NCc1cc(F)ccc1F)c1ccc(S(=O)(=O)Nc2nccs2)cc1` [Example 87, N-(2,5-difluorobenzyl)-4-[(1,3-thiazol-2-ylamino)sulfonyl]benzamide], for which the inhibition at 3 µM is 36.9% and the inhibition at 10 µM amounted to 46.2%.
The matching figures for `COc1cccc(C2CCCN2C(=O)c2ccc(S(=O)(=O)Nc3nccs3)cc2)c1` (stereo not drawn) [Example 273, 4-{[2-(3-Methoxyphenyl)pyrrolidin-1-yl]carbonyl}-N-1,3-thiazol-2-yl-benzenesulfonamide]: 4.82% and 2.72%.
In the case of `O=C(c1ccc(S(=O)(=O)Nc2nccs2)cc1)N1CCOCC(Cc2ccccc2)C1` (stereo not drawn) [Example 259, 4-[(6-Benzyl-1,4-oxazepan-4-yl)carbonyl]-N-1,3-thiazol-2-yl-benzenesulfonamide], the inhibition at 3 µM came out at 5.51% and the inhibition at 10 µM came out at 19.6%.
The matching figures for `Cc1cc(CC(NC(=O)c2ccc(S(=O)(=O)Nc3nccs3)cc2)c2ccc(F)cc2)on1` (stereo not drawn) [Example 156, N-[1-(4-fluorophenyl)-2-(3-methylisoxazol-5-yl)ethyl]-4-[(1,3-thiazol-2-ylamino)sulfonyl]benzamide]: 13.3% and 30.3%.
In the same order, the values of `CN(CC1Cc2ccccc2O1)C(=O)c1ccc(S(=O)(=O)Nc2nccs2)cc1` (stereo not drawn) [Example 274, N-(2,3-dihydro-1-benzofuran-2-ylmethyl)-N-methyl-4-[(1,3-thiazol-2-ylamino)sulfonyl]benzamide] are 14.6% and 19.6%.
`CC(CNC(=O)c1ccc(S(=O)(=O)Nc2nccs2)cc1)c1ccccc1` (stereo not drawn) [Example 155, N-(2-phenylpropyl)-4-[(1,3-thiazol-2-ylamino)sulfonyl]benzamide]: the inhibition at 3 µM worked out at 30.1% and the inhibition at 10 µM is 40.8%.
